In one data set the test system is MCF-7 organoids. The data set is described as follows: Endpoint ATP-release assay (CellTiter-Glo) of organoid viability. As to conditions: for viability at 0.1 µM / viability at 1 µM / viability at 10 µM / viability at 50 µM: Homo sapiens. Type of data set: cell-based. As to the method: (§1) All drug treatments of 3D organoids were performed in serum-free conditions in MammoCult™ medium supplemented with 1% antibiotic-antimycotic (Gibco 15240-062). A detailed protocol for the drug screening has been published previously in Phan, N. et al. supra; and Nguyen, H. T. L. & Soragni, supra. Briefly, the culture medium was fully removed three days after seeding and replaced with 100 μL of MammoCult™ medium containing the indicated treatments using an automated pipetting system (EpMotion® 96). After treatment, we transferred the organoids to the HSLCI for imaging. Organoids were imaged by HSLCI between 6 hours and 48 hours after treatment. After imaging, we performed an ATP assay to assess cell viability in accordance with the manufacturer's instructions. The media was aspirated from each well and replaced with 50 μL of 5 mg/mL Dispase (Thermo-Fisher) solution to digest the Matrigel. After a 25-minute incubation at 37° C., the plate was placed on an orbital shaker for 5 minutes at 80 RPM. We then added 30 μL of CellTiter-Glo® reagent (Promega), sealed the plate with film, covered the plate with foil to protect from light, shook the plate for 5 minutes at 80 RPM, and incubated at room temperature for an additional 20 minutes. We used a SpectraMax iD3 plate reader to measure luminescence. The program parameters for luminescence readings were 5 minutes of shaking prior to reading, reading all wavelengths, and integrating signal over 500 ms. Organoid viability within each well was calculated by dividing the luminescent signal from each well by the mean luminescence of the control (1% DMSO) wells. Two-tailed independent t-tests were performed to assess the statistical significance of the differences in organoid mass and cell viability. P-values less than 0.05 were deemed significant.
Background: In ATP-based viability assays light output follows the ATP content of the culture.

Another data set relates to BT-474 organoids. The description is as above. Type of data set: cell-based. As to conditions: for viability at 0.1 µM / viability at 1 µM / viability at 10 µM / viability at 50 µM: Homo sapiens. As to the method: as §1, with “Organoids were imaged by HSLCI between 6 hours and 48 hours after treatment. After imaging, we performed an ATP assay to assess cell viability in accordance with the manufacturer's instructions.” left out

The mark [1] stands for this setting: MCF7, 6 h, read-out: Comparisons of cell viability measures by ATP detection assay, Mean mass ± SD.
Setting [2] is: MCF7, 72 h, read-out: Organoid viability by endpoint ATP assay, Viability ± SD.
Setting [3] is: BT-474, 48 h, read-out: Comparisons of cell viability measures by ATP detection assay, Mean mass ± SD.
Setting [4] is: BT-474, 72 h, read-out: Organoid viability by endpoint ATP assay, Viability ± SD.

The record followed here is patent publication US20240069010A1, “TISSUE ORGANOID BIOPRINTING AND HIGH-THROUGHPUT SCREENING METHODOLOGY” (priority 2020, published 2024).

Where two headings read alike, the source gives them in different places.

Regarding `CS(=O)(=O)CCNCc1ccc(-c2ccc3ncnc(Nc4ccc(OCc5cccc(F)c5)c(Cl)c4)c3c2)o1` [Lapatinib, lapatinib], the viability – broadly, a read-out of living cells in per cent, often relative to untreated cells – at 0.1 µM with MCF-7 organoids (MCF7, MCF-7, 0.1 μM, 72 h of treatment, luminescence relative to 1% DMSO control, read-out: Organoid viability by endpoint ATP assay, Viability ± SD) is 100 ± 3%; in the data set with MCF-7 organoids (MCF7, listed as printed as 6 hours, 0.1 μM, relative to 1% DMSO, read-out: Comparisons of cell viability measures by ATP detection assay, Mean mass ± SD) it was 100 ± 3%; in the data set on BT-474 organoids (BT-474, listed as printed as 48 hours, 0.1 μM, relative to 1% DMSO, read-out: Comparisons of cell viability measures by ATP detection assay, Mean mass ± SD), 70 ± 18%; in the data set on BT-474 organoids (BT-474, 0.1 μM, 72 h of treatment, luminescence relative to 1% DMSO control, read-out: Organoid viability by endpoint ATP assay, Viability ± SD) it was 70 ± 18%. Besides, the viability at 1 µM with MCF-7 organoids (MCF7, MCF-7, 1 μM, 72 h of treatment, luminescence relative to 1% DMSO control, read-out: Organoid viability by endpoint ATP assay, Viability ± SD) stood at 101 ± 4%; with MCF-7 organoids (MCF7, listed as printed as 6 hours, 1 μM, relative to 1% DMSO, read-out: Comparisons of cell viability measures by ATP detection assay, Mean mass ± SD) it was 101 ± 4%; in the data set on BT-474 organoids (BT-474, listed as printed as 48 hours, 1 μM, relative to 1% DMSO, read-out: Comparisons of cell viability measures by ATP detection assay, Mean mass ± SD), 43 ± 9%; in the data set with BT-474 organoids (BT-474, 1 μM, 72 h of treatment, luminescence relative to 1% DMSO control, read-out: Organoid viability by endpoint ATP assay, Viability ± SD), 43 ± 9%. The viability at 10 µM in the data set on MCF-7 organoids (MCF7, MCF-7, 10 μM, 72 h of treatment, luminescence relative to 1% DMSO control, read-out: Organoid viability by endpoint ATP assay, Viability ± SD) was determined as 66 ± 7%; in the data set on MCF-7 organoids (MCF7, listed as printed as 6 hours, 10 μM, relative to 1% DMSO, read-out: Comparisons of cell viability measures by ATP detection assay, Mean mass ± SD), 66 ± 7%; in the data set on BT-474 organoids (BT-474, listed as printed as 48 hours, 10 μM, relative to 1% DMSO, read-out: Comparisons of cell viability measures by ATP detection assay, Mean mass ± SD), 32 ± 4%; with BT-474 organoids (BT-474, 10 μM, 72 h of treatment, luminescence relative to 1% DMSO control, read-out: Organoid viability by endpoint ATP assay, Viability ± SD), 32 ± 4%. Also, the viability at 50 µM turned out to be 14 ± 3% in the data set with MCF-7 organoids (MCF7, MCF-7, 72 h of treatment, luminescence relative to 1% DMSO control, read-out: Organoid viability by endpoint ATP assay, Viability ± SD); 14 ± 3% in the data set with MCF-7 organoids (MCF7, listed as printed as 6 hours, relative to 1% DMSO, read-out: Comparisons of cell viability measures by ATP detection assay, Mean mass ± SD); 9 ± 7% with BT-474 organoids (BT-474, listed as printed as 48 hours, relative to 1% DMSO, read-out: Comparisons of cell viability measures by ATP detection assay, Mean mass ± SD); 9 ± 7% with BT-474 organoids (BT-474, 72 h of treatment, luminescence relative to 1% DMSO control, read-out: Organoid viability by endpoint ATP assay, Viability ± SD). Moreover, the “Organoid viability by endpoint ATP assay, Viability ± SD” value in the data set on BT-474 organoids (BT-474, 0.1 μM, 72 h of treatment, luminescence relative to 1% DMSO control) is listed as “significant reductions in viability”.

Turning to `CN[C@@H]1C[C@H]2O[C@@](C)([C@@H]1OC)n1c3ccccc3c3c4c(c5c6ccccc6n2c5c31)C(=O)NC4` [Staurosporine, staurosporine], the viability at 0.1 µM in the data set on MCF-7 organoids (setting [1]) came out at 50 ± 8%; in the data set with MCF-7 organoids (setting [2]), 50 ± 8%; in the data set on BT-474 organoids (setting [3]), 58 ± 14%; with BT-474 organoids (setting [4]) it was 58 ± 14%. In addition, the viability at 1 µM came out at 17 ± 4% in the data set on MCF-7 organoids (setting [1]), 17 ± 4% in the data set with MCF-7 organoids (setting [2]), 2 ± 1% with BT-474 organoids (setting [3]) and 2 ± 1% with BT-474 organoids (setting [4]). For the same compound, the viability at 10 µM stood at 13 ± 3% in the data set on MCF-7 organoids (setting [1]), 13 ± 3% in the data set on MCF-7 organoids (setting [2]), 1% in the data set on BT-474 organoids (setting [3]) and 1% with BT-474 organoids (setting [4]). The “Organoid viability by endpoint ATP assay, Viability ± SD” value with MCF-7 organoids (MCF-7, 1 μM, 72 h of treatment, luminescence relative to 1% DMSO control) is “near-zero viability”; in the data set on MCF-7 organoids (MCF-7, 10 μM, 72 h of treatment, luminescence relative to 1% DMSO control), “near-zero viability”; in the data set with BT-474 organoids (BT-474, 1 μM, 72 h of treatment, luminescence relative to 1% DMSO control), “near-zero viability”; with BT-474 organoids (BT-474, 10 μM, 72 h of treatment, luminescence relative to 1% DMSO control), “near-zero viability”.
